Series [1] in a line: Aqueous solubility test. It is filed as physicochemical. The note with it: for solubility: buffer solution, aqueous buffer, thermodynamic from solid, rt, buffer pH 7.4, stirred 48 hours or less, HPLC. On the procedure: The pH of the mixtures was held constant during the study. Excess amounts or a known amount of each component are added to 1 or 0.5 ml of buffer solution and the mixtures were stirred at rt for 48 hours or less, filtered (0.45 μm Millipore) and analyzed by HPLC.

Series [2] concerns the target T1, recombinant human 17β-HSD2 (Homo sapiens, UniProt P37059).
T1 construct: made in house; host or cells: Sd9 (Sf9) insect cells, baculovirus (Bac to Bac Expression System)
T1 sequence (P37059 1-387): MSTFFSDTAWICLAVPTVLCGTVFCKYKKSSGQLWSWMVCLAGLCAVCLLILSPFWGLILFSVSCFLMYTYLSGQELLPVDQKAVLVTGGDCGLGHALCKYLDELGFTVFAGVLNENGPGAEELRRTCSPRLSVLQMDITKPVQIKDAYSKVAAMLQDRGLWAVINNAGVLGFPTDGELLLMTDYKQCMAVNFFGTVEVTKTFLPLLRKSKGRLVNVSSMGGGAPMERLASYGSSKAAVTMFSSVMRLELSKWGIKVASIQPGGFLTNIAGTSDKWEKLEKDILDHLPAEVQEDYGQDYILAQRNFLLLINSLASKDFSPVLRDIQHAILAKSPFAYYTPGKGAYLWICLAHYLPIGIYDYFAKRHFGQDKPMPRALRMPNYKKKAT
Briefly: Inhibition of recombinant human 17β-HSD2 (conversion of 3H-estradiol to estrone, HPLC). The settings on record: inhibitor 1 μM; 50 nM estradiol, 1 mM NADH, 30 min RT. It is filed as biochemical. The procedure:
17β-HSD2 production and isolation: Similarly to 17β-HSD1 the Recombinant baculovirus was generated by the “Bac to Bac Expression System” (Invitrogen). Recombinant bacmid was transfected to Sd9 insect cells using “Cellfectin Reagent” (Invitrogen). 60 h later cells were harvested and supernatant were fractionated by the following protocol: • cells were dissolved into 40 ml of A-buffer (40 mM TRIS, pH8.0, 20% glycerol, 20 μM NAD, 0.4 mM PMSF, 150 mM NaCl, 0.5% dodecyl-β-maltoside+protease inhibitor cocktail) • cells were sonicated • lysate was incubated on ice for 15 min • lysate was centrifuged 5000 rpm 15 min, +4° C. • centrifugation of the supernatant 180 000 g 30 min, +4° C. • pellet was dissolved into 8 ml of A-buffer • not resuspended material was removed by centrifugation 5000 rpm 15 min, +4° C. • the clear supernatant was divided into 100 μl aliquots and were stored frozen until determination of enzymatic activity.
The amount of 17β-HSD2 was analysed by immunoblotting and total protein concentration of each extract batch was determined.
Assay—Inhibition of recombinant human 17β-HSD2: Protein homogenate (4 μg/ml) was incubated in 20 mM KH2PO4 pH 8.5 with 50 nM estradiol (including 800 000 cpm/ml of ^3H-estradiol) and 1 mM […] for 30 min at RT, in the presence of the potential inhibitor at concentrations 1 μM or 0.1 μM. Inhibitor stock solutions were prepared in DMSO. Final concentration of DMSO was adjusted to 1% in all samples. The enzyme reaction was stopped by addition of 10% trichloroacetic acid (final concentration). Samples were centrifuged in a microtiter plate at 4000 rpm for 10 min. Supernatants were applied to reverse phase HPLC on a Waters Symmetry C18 column, equipped with a Waters Sentry Guard column. Isocratic HPLC runs were performed at RT at a flow rate ofl ml/min in acetonitrile:water 48:52 as running solvent. Radioactivity was monitored in the eluate by a Packard Flow Scintillation Analyzer. Total radioactivity for estrone and estradiol were determined in each sample and percent conversion of estradiol to estrone was calculated according to the following formula:
(§1) Percent inhibition was calculated flowingly: % inhibition=100−% conversion

The target of series [3] is T2, recombinant human 17β-HSD1 (Homo sapiens, UniProt P14061).
T2 construct: made in house; host or cells: Sd9 (Sf9) insect cells, baculovirus (Bac to Bac Expression System)
T2 sequence (P14061 1-328): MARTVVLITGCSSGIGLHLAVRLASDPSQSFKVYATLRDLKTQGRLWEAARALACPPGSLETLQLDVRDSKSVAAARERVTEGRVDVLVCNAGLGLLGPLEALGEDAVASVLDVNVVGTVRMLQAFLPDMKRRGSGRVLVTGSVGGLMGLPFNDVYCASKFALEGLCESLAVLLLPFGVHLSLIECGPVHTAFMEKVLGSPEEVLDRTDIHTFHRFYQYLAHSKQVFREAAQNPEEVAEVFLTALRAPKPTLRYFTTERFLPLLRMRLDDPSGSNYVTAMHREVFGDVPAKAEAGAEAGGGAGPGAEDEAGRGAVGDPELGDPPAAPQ
Nature of the series: Inhibition of recombinant human 17β-HSD1 (conversion of 3H-estrone to estradiol, HPLC). The settings on record: inhibitor 1 μM; 30 nM estrone, 1 mM NADPH, 30 min RT; read-out: 17β-HDS1 Inhibition % at 1 μM. It is filed as biochemical. On the procedure:
17β-HSD1 production and isolation: Recombinant baculovirus was generated by the “Bac to Bac Expression System” (Invitrogen). Recombinant bacmid was transfected to Sd9 insect cells using “Cellfectin Reagent” (Invitrogen). 60 h later cells were harvested; the microsomal fraction was isolated as described by Puranen, T. J., Poutanen, M. H., Peltoketo, H. E., Vihko, P. T. and Vihko, R. K. (1994) Site-directed mutagenesis of the putative active site of human 17 β-hydroxysteroid dehydrogenase type 1. Biochem. J. 304: 289-293. Aliquots were stored frozen until determination of enzymatic activity.
Assay—Inhibition of recombinant human 17β-HSD1: Protein homogenate (0.1 μg/ml) was incubated in 20 mM KH2PO4 pH 7.4 with 30 nM estrone (including 800 000 cpm/ml of ^3H-estrone) and 1 mM NADPH for 30 min at RT, in the presence of the potential inhibitor at concentrations 1 μM or 0.1 μM. Inhibitor stock solutions were prepared in DMSO. Final concentration of DMSO was adjusted to 1% in all samples. The enzyme reaction was stopped by addition of 10% trichloroacetic acid (final concentration). Samples were centrifuged in a microtiter plate at 4000 rpm for 10 min. Supernatants were applied to reverse phase HPLC on a Waters Symmetry C18 column, equipped with a Waters Sentry Guard column. Isocratic HPLC runs were performed at RT at a flow rate of 1 ml/min in acetonitrile:water 48:52 as running solvent. Radioactivity was monitored in the eluate by a Packard Flow Scintillation Analyzer. Total radioactivity for estrone and estradiol were determined in each sample and percent conversion of estrone to estradiol was calculated according to the following formula:
as §1

The nature of series [4]: Metabolic stability assay. It is filed as in vitro ADME. The note with it: human liver homogenate or microsomes. On the procedure:
The in vitro metabolic stability of the parent compounds was determined for exemplified compounds using human liver microsome and homogenate incubations. The incubation time points used with or without appropriate cofactors were 0 min and 60 min. Samples were collected at both time points and substrates were detected using LC/PDA/TOF-MS. In vitro metabolic stability (% remaining after 60 min in human liver homogenate or microsomes) of the compounds were calculated and the results are summarized in Table 4.

A short description of series [5]: Determination of bioavailability: oral pharmacokinetics in Cynomolgus monkeys. The series is classed as in vivo. The settings on record: dose corresponding to 10 mg/kg of parent drug, 0.5% Carboxymethyl cellulose in water. On the procedure:
This study was performed in order to determine bioavailability of the present compounds in vivo. All animal experiments are performed in accordance with standards of ethical conduct and appropriate institutional animal care and use policies.
The pharmacokinetic studies of the compounds of the invention were assessed in Cynomolgus monkeys. The study compounds were administrated orally at a dose level corresponding to 10 mg/kg of parent drug. The common aqueous formulation, 0.5% Carboxymethyl cellulose in water, was used as a vehicle. The blood samples were obtained by direct venipuncture at pre-dose, and ten sequential time points after oral administration.
The quantitative bioanalysis of plasma samples were performed in accordance with the guidance Bioanalytical Method Validation (FDA, 2001) and the Guideline on Bioanalytical Method Validation (European Medicines Agency, 2011). Analytical method was optimized for suitable chromatographic (peak shape, retention) and mass spectrometric (ionization efficiency) properties.
A non-compartmental pharmacokinetic analysis was carried out with individual plasma concentration-time curves using WinNonlin® Professional Version 6.3 (Pharsight Corporation): […]
The area under the concentration-time curve from 0 to the last measurable concentration (AUCt) was calculated using the linear-log trapezoidal rule.

Converted amounts (≈) assume the structure as drawn.

Regarding `CO/N=C1\C[C@@H](CCC(=O)Nc2ncc(C)s2)C2C3CCc4cc(OC(=O)CN)ccc4C3CC[C@]12C` (stereo partly drawn) [Compound 3, Aminoacetic acid (13S,15R)-13-methyl-17[(E)-methoxyimino]-15-[2-(5-methyl-thiazol-2-ylcarbamoyl)-ethyl]-7,8,9,11,12,13,14,15,16,17-decahydro-6H-cyclopenta[a]phenanthren-3-yl ester], the solubility in series [1] was 2.37 µg/mL (≈ 4.52 µM). Besides, in series [1] (comment on Table 5, compared with parent VIV-1), the “aqueous solubility, in words” value was “improved aqueous solubility”.

`CO/N=C1\C[C@@H](CCC(=O)Nc2ncc(C)s2)C2C3CCc4cc(O)ccc4C3CC[C@]12C` (stereo partly drawn) [VIV-1, 3-{(13S,15R)-3-Hydroxy-17-[(E)-methoxyimino]-13-methyl-7,8,9,11,12,13,14,15,16,17-decahydro-6H-cyclopenta[a]phenanthren-15-yl}-N-(5-methylthiazol-2-yl)propanamide] gave a solubility in series [1] of under 0.52 µg/mL. Further, the inhibition at 1 µM in series [2] came to 4%; in series [3], 95%. Further, in series [4], the “In vitro metabolic stability, % remaining after 60 min” value is 73%.

For `CO/N=C1\C[C@@H](CCC(=O)Nc2ncc(C)s2)C2C3CCc4cc(O)c(Cl)cc4C3CC[C@]12C` (stereo partly drawn) [VIV-12, 3-{(13S,15R)-2-Chloro-3-hydroxy-17-[(E)-methoxyimino]-13-methyl-7,8,9,11,12,13,14,15,16,17-decahydro-6H-cyclopenta[a]phenanthren-15-yl}-N-(5-methylthiazol-2-yl)propanamide], the inhibition at 1 µM in series [2] came out at 3%; in series [3], 95%. The “In vitro metabolic stability, % remaining after 60 min” value in series [4] was determined as 94%.

For “Phosphoric acid mono-{(13S,15R)-17-[(E)-methoxyimino]-13-methyl-15-[2-(5-methylthiazol-2-ylcarbamoyl)ethyl-7,8,9,11,12,13,14,15,16,17-decahydro-6H-cyclopenta[a]phenanthren-3-yl} ester disodium salt [Compound 1a]”, the Cmax in series [5] is listed as 286 ng/mL. Besides, the AUCt in series [5] (0 to last measurable concentration) was 3170 ng·h/mL.

(Values after patent US10413557B2, “Prodrugs of 17.BETA.-HSD1-inhibitors” (FORENDO PHARMA LTD, priority 2014, dated 2019).)
